Assay results published in ChEMBL document CHEMBL3763148, “Synthesis, structure elucidation, DNA-PK and PI3K and anti-cancer activity of 8- and 6-aryl-substituted-1-3-benzoxazines” (Eur J Med Chem, 2016).

Legend:
[1] = biological target: Phosphatidylinositol 4,5-bisphosphate 3-kinase catalytic subunit gamma isoform (Homo sapiens) (UniProt P48736); experiment: Inhibition of PI3Kgamma (unknown origin) at 10 uM incubated for 60 mins by kinase-glo luminescence assay
[2] = biological target: DNA-dependent protein kinase catalytic subunit (Homo sapiens, UniProt P78527); experiment: Inhibition of human DNA-PK using EPPLSQEAFADLWKK as substrate by HTRF assay
CCRF-CEM = experiment: Cytotoxicity against human CCRF-CEM cells assessed as cell growth inhibition at 10 uM after 48 hrs by SRB assay relative to control; assay type: functional; conditions: read-out: GI
[3] = Cytotoxicity against human HL-60(TB) cells assessed as cell growth inhibition at 10 uM after 48 hrs by SRB assay relative to control; assay type: functional; conditions: HL-60, 48 h, read-out: GI
K562 = experiment: Cytotoxicity against human K562 cells assessed as cell growth inhibition at 10 uM after 48 hrs by SRB assay relative to control; assay type: functional; conditions: K562, 48 h, read-out: GI
[4] = Cytotoxicity against human MOLT4 cells assessed as cell growth inhibition at 10 uM after 48 hrs by SRB assay relative to control; assay type: functional; conditions: MOLT-4, 48 h, read-out: GI
[5] = Cytotoxicity against human RPMI8226 cells assessed as cell growth inhibition at 10 uM after 48 hrs by SRB assay relative to control; assay type: functional; conditions: RPMI-8226, 48 h, read-out: GI
SR = experiment: Cytotoxicity against human SR cells assessed as cell growth inhibition at 10 uM after 48 hrs by SRB assay relative to control; assay type: functional; conditions: read-out: GI
A549 = experiment: Cytotoxicity against human A549 cells assessed as cell growth inhibition at 10 uM after 48 hrs by SRB assay relative to control; assay type: functional; conditions: A549, 48 h, read-out: GI
EKVX = experiment: Cytotoxicity against human EKVX cells assessed as cell growth inhibition at 10 uM after 48 hrs by SRB assay relative to control; assay type: functional; conditions: read-out: GI
[6] = Cytotoxicity against human HOP92 cells assessed as cell growth inhibition at 10 uM after 48 hrs by SRB assay relative to control; assay type: functional; conditions: HOP-92, 48 h, read-out: GI
NCI-H226 = experiment: Cytotoxicity against human NCI-H226 cells assessed as cell growth inhibition at 10 uM after 48 hrs by SRB assay relative to control; assay type: functional; conditions: NCI-H226, 48 h, read-out: GI
NCI-H23 = experiment: Cytotoxicity against human NCI-H23 cells assessed as cell growth inhibition at 10 uM after 48 hrs by SRB assay relative to control; assay type: functional; conditions: NCI-H23, 48 h, read-out: GI
NCI-H322M = experiment: Cytotoxicity against human NCI-H322M cells assessed as cell growth inhibition at 10 uM after 48 hrs by SRB assay relative to control; assay type: functional; conditions: read-out: GI
NCI-H460 = experiment: Cytotoxicity against human NCI-H460 cells assessed as cell growth inhibition at 10 uM after 48 hrs by SRB assay relative to control; assay type: functional; conditions: NCI-H460, 48 h, read-out: GI
NCI-H522 = experiment: Cytotoxicity against human NCI-H522 cells assessed as cell growth inhibition at 10 uM after 48 hrs by SRB assay relative to control; assay type: functional; conditions: NCI-H522, 48 h, read-out: GI
[7] = Cytotoxicity against human COLO205 cells assessed as cell growth inhibition at 10 uM after 48 hrs by SRB assay relative to control; assay type: functional; conditions: COLO 205, 48 h, read-out: GI
[8] = Cytotoxicity against human HCC2998 cells assessed as cell growth inhibition at 10 uM after 48 hrs by SRB assay relative to control; assay type: functional; conditions: HCC 2998, 48 h, read-out: GI
[9] = Cytotoxicity against human HCT116 cells assessed as cell growth inhibition at 10 uM after 48 hrs by SRB assay relative to control; assay type: functional; conditions: HCT-116, 48 h, read-out: GI
HT-29 = experiment: Cytotoxicity against human HT-29 cells assessed as cell growth inhibition at 10 uM after 48 hrs by SRB assay relative to control; assay type: functional; conditions: HT-29, 48 h, read-out: GI
KM12 = experiment: Cytotoxicity against human KM12 cells assessed as cell growth inhibition at 10 uM after 48 hrs by SRB assay relative to control; assay type: functional; conditions: KM12, 48 h, read-out: GI
[10] = Cytotoxicity against human SW620 cells assessed as cell growth inhibition at 10 uM after 48 hrs by SRB assay relative to control; assay type: functional; conditions: SW-620, 48 h, read-out: GI
[11] = Cytotoxicity against human SF295 cells assessed as cell growth inhibition at 10 uM after 48 hrs by SRB assay relative to control; assay type: functional; conditions: SF-295, 48 h, read-out: GI
[12] = Cytotoxicity against human SNB75 cells assessed as cell growth inhibition at 10 uM after 48 hrs by SRB assay relative to control; assay type: functional; conditions: SNB-75, 48 h, read-out: GI
U-251 = experiment: Cytotoxicity against human U251 cells assessed as cell growth inhibition at 10 uM after 48 hrs by SRB assay relative to control; assay type: functional; conditions: U-251, 48 h, read-out: GI
[13] = Cytotoxicity against human LOXIMVI cells assessed as cell growth inhibition at 10 uM after 48 hrs by SRB assay relative to control; assay type: functional; conditions: LOX IMVI, read-out: GI
Malme-3M = experiment: Cytotoxicity against human MALME-3M cells assessed as cell growth inhibition at 10 uM after 48 hrs by SRB assay relative to control; assay type: functional; conditions: read-out: GI
MDA-MB-435 = experiment: Cytotoxicity against human MDA-MB-435 cells assessed as cell growth inhibition at 10 uM after 48 hrs by SRB assay relative to control; assay type: functional; conditions: MDA-MB-435, 48 h, read-out: GI
[14] = Cytotoxicity against human OVCAR4 cells assessed as cell growth inhibition at 10 uM after 48 hrs by SRB assay relative to control; assay type: functional; conditions: OVCAR-4, 48 h, read-out: GI
786-0 = experiment: Cytotoxicity against human 786-0 cells assessed as cell growth inhibition at 10 uM after 48 hrs by SRB assay relative to control; assay type: functional; conditions: 786-0, 48 h, read-out: GI
ACHN = experiment: Cytotoxicity against human ACHN cells assessed as cell growth inhibition at 10 uM after 48 hrs by SRB assay relative to control; assay type: functional; conditions: read-out: GI
SN12C = experiment: Cytotoxicity against human SN12C cells assessed as cell growth inhibition at 10 uM after 48 hrs by SRB assay relative to control; assay type: functional; conditions: read-out: GI
[15] = Cytotoxicity against human UO31 cells assessed as cell growth inhibition at 10 uM after 48 hrs by SRB assay relative to control; assay type: functional; conditions: UO-31, 48 h, read-out: GI
[16] = Cytotoxicity against human PC3 cells assessed as cell growth inhibition at 10 uM after 48 hrs by SRB assay relative to control; assay type: functional; conditions: PC-3, 48 h, read-out: GI
MDA-MB-231 = experiment: Cytotoxicity against human MDA-MB-231 cells assessed as cell growth inhibition at 10 uM after 48 hrs by SRB assay relative to control; assay type: functional; conditions: MDA-MB-231, 48 h, read-out: GI
T47D = experiment: Cytotoxicity against human T47D cells assessed as cell growth inhibition at 10 uM after 48 hrs by SRB assay relative to control; assay type: functional; conditions: read-out: GI

Chain of DNA-dependent protein kinase catalytic subunit (P78527 whole entry): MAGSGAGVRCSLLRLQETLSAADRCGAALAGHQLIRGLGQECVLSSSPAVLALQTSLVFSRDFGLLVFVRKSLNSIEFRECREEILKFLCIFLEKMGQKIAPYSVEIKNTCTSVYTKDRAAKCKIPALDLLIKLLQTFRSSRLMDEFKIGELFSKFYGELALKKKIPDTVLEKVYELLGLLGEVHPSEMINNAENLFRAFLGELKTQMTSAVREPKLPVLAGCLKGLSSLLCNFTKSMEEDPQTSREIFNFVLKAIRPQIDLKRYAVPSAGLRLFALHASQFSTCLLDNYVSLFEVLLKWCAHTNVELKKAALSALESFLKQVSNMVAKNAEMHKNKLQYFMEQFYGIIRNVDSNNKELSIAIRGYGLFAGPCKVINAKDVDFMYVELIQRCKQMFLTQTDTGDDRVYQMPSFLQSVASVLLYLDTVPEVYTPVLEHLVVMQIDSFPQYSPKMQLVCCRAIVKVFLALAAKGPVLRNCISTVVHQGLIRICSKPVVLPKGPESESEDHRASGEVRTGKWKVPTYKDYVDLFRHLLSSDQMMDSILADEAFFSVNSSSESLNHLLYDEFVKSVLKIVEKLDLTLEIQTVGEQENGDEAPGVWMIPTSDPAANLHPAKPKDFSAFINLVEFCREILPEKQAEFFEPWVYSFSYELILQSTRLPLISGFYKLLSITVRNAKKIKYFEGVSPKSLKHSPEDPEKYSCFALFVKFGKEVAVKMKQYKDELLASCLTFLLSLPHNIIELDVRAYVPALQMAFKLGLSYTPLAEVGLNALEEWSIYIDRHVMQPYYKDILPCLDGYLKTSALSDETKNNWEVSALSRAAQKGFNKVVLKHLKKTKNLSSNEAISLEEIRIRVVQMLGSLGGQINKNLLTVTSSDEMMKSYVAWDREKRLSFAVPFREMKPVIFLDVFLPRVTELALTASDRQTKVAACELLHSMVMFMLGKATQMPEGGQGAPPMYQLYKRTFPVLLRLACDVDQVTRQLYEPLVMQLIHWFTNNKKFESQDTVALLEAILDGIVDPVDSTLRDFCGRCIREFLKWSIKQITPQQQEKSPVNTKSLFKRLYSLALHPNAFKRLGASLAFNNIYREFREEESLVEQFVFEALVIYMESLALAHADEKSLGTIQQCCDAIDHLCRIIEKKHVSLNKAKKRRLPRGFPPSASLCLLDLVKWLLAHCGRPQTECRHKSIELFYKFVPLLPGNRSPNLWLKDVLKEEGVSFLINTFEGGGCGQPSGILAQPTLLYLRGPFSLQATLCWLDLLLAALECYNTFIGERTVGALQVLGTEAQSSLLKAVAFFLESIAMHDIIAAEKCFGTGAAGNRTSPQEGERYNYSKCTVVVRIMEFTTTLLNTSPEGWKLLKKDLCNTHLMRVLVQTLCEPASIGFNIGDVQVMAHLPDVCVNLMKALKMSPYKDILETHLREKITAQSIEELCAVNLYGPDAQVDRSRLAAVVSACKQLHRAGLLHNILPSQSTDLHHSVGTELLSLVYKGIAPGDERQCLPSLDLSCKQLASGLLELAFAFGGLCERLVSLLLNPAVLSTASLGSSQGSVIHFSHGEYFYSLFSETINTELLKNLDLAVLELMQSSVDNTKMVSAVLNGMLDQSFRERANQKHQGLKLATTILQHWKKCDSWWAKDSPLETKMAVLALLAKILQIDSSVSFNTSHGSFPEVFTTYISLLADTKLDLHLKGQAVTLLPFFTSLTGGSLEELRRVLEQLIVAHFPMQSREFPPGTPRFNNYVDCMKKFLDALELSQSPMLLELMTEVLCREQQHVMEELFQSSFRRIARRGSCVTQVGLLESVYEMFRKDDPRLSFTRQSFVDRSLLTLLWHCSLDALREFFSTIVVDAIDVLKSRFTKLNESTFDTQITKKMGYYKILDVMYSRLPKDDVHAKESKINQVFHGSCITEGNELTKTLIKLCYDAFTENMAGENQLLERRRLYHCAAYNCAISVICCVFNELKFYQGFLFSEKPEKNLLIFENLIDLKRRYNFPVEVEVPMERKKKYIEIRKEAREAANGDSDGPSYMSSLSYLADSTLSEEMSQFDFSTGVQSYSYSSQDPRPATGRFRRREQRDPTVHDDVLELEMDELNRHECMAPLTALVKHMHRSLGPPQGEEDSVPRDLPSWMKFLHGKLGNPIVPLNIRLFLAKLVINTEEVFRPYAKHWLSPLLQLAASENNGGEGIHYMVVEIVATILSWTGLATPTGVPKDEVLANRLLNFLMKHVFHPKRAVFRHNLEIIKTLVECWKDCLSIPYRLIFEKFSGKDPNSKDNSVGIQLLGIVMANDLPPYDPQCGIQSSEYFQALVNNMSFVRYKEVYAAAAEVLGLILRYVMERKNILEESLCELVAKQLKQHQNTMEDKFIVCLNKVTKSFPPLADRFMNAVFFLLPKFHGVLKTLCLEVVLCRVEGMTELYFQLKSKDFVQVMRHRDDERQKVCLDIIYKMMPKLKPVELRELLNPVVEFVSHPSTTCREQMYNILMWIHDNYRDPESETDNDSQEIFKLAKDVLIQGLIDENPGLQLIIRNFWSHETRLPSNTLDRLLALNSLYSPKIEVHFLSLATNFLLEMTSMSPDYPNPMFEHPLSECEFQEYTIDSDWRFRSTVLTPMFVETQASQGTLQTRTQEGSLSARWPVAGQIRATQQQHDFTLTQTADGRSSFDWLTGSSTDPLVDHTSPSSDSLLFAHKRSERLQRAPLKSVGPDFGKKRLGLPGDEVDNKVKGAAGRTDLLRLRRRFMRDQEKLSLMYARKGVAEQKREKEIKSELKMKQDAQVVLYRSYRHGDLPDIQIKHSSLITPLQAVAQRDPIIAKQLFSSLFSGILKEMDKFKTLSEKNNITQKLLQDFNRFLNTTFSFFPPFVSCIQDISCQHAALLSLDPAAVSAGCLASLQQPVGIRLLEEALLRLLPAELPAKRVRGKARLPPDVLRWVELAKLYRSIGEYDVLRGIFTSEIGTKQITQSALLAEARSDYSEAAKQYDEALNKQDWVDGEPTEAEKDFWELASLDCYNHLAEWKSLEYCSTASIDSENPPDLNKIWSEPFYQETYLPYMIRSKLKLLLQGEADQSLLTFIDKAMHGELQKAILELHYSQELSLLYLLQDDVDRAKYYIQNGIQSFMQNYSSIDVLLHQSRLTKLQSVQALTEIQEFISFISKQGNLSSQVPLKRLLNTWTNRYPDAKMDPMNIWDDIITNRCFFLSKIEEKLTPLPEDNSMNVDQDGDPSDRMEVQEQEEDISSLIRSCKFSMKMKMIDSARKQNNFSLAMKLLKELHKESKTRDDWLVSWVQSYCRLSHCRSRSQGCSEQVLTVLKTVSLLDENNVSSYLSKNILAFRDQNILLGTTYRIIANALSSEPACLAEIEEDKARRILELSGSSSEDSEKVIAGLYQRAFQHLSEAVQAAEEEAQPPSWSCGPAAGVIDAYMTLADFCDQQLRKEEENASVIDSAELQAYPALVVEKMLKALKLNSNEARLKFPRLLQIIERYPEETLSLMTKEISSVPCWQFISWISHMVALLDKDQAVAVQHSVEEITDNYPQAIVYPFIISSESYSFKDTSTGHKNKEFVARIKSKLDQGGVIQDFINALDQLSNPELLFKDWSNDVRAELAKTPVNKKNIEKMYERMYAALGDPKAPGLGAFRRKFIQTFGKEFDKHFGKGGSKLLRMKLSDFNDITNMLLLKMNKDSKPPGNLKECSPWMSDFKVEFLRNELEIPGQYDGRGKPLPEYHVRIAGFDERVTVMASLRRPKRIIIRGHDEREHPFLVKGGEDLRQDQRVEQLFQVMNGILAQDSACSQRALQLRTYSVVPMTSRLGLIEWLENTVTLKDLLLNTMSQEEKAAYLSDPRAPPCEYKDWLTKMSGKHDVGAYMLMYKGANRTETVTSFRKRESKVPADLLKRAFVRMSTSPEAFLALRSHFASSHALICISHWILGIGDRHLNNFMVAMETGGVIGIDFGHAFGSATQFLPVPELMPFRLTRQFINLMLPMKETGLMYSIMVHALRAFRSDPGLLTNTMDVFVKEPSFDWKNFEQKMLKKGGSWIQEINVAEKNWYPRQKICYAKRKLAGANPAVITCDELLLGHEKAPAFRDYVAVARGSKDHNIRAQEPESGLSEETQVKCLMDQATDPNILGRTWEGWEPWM

SMILES: COc1ccc(-c2cccc3c(=O)nc(N4CCOCC4)oc23)cc1
- inhibition [1]: 7%
- IC50 [2]: 9.94 µM
- inhibition of growth at 10 µM (CCRF-CEM): 2.57%
- inhibition of growth at 10 µM [3]: 7.35%
- inhibition of growth at 10 µM (K562): 7.02%
- inhibition of growth at 10 µM [4]: 1.48%
- inhibition of growth at 10 µM [5]: -0.31%
- inhibition of growth at 10 µM (SR): 26.1%
- inhibition of growth at 10 µM (A549): 5.88%
- inhibition of growth at 10 µM (EKVX): 11.1%
- inhibition of growth at 10 µM [6]: 34.8%
- inhibition of growth at 10 µM (NCI-H226): 15.1%
- inhibition of growth at 10 µM (NCI-H23): 14.3%
- inhibition of growth at 10 µM (NCI-H322M): 3.11%
- inhibition of growth at 10 µM (NCI-H460): -5.69%
- inhibition of growth at 10 µM (NCI-H522): 12.8%
- inhibition of growth at 10 µM [7]: -2.6%
- inhibition of growth at 10 µM [8]: -5.73%
- inhibition of growth at 10 µM [9]: 7.05%
- inhibition of growth at 10 µM (HT-29): 10.8%
- inhibition of growth at 10 µM (KM12): 2.91%
- inhibition of growth at 10 µM [10]: 0.87%
- inhibition of growth at 10 µM [11]: 2.78%
- inhibition of growth at 10 µM [12]: 38.2%
- inhibition of growth at 10 µM (U-251): 0.83%
- inhibition of growth at 10 µM [13]: 13%
- inhibition of growth at 10 µM (Malme-3M): -4.08%
- inhibition of growth at 10 µM (MDA-MB-435): 1.03%
- inhibition of growth at 10 µM [14]: 2.85%
- inhibition of growth at 10 µM (786-0): 9.72%
- inhibition of growth at 10 µM (ACHN): 6.19%
- inhibition of growth at 10 µM (SN12C): 8.75%
- inhibition of growth at 10 µM [15]: 17.4%
- inhibition of growth at 10 µM [16]: 14.9%
- inhibition of growth at 10 µM (MDA-MB-231): 3.13%
- inhibition of growth at 10 µM (T47D): 38.5%
